Results on 25 compounds are retold here after ChEMBL document CHEMBL2169787, “The biology and chemistry of antifungal agents: a review” (2012).

Type in all cases: functional
One experiment has as its system Candida parapsilosis. Nature of the experiment: Antifungal activity against Candida parapsilosis. To be noted: Lodderomyces parapsilosis.
For a further experiment, the system named is Microsporum. Nature of the experiment: Antifungal activity against Microsporum […].
Another experiment deals with Candida tropicalis. Nature of the experiment: Antifungal activity against Candida tropicalis.
Experiment [1] has as its system Aspergillus fumigatus. Put plainly: Antifungal activity against Aspergillus fumigatus.
Another experiment concerns Cryptococcus neoformans. Put plainly: Antifungal activity against Cryptococcus neoformans.
The subject of a further experiment is Trichophyton rubrum. Nature of the experiment: Antifungal activity against Trichophyton rubrum.
For a further experiment, the system named is Candida albicans. Nature of the experiment: Antifungal activity against Candida albicans. The following applies: Candida albicans.
The subject of experiment [2] is Aspergillus niger. Put plainly: Antifungal activity against Aspergillus niger assessed as growth inhibition.
Experiment [3] relates to Aspergillus flavus. Put plainly: Antifungal activity against Aspergillus flavus assessed as growth inhibition.
The subject of another experiment is Candida. Put plainly: Antifungal activity against Candida spp.
The subject of a further experiment is Lasiodiplodia theobromae. Put plainly: Antifungal activity against Botryodiplodia theobromae.
For the next experiment, the system named is Fusarium verticillioides. Put plainly: Antifungal activity against Fusarium moniliforme.
Experiment [4] has as its system Aspergillus flavus. Put plainly: Antifungal activity against Aspergillus flavus. To be noted: Aspergillus flavus.
In a further experiment the test system is Pichia kudriavzevii. Nature of the experiment: Antifungal activity against Candida krusei.
Experiment [5] concerns Aspergillus niger. Put plainly: Antifungal activity against Aspergillus niger. To be noted: Aspergillus niger.
A short description of experiment [6]: Antifungal activity against Fonsecaea compacta.
The next experiment concerns Microsporum canis. Put plainly: Antifungal activity against Microsporum canis.
The test system of another experiment is Aspergillus ochraceus. Nature of the experiment: Antifungal activity against Aspergillus ochraceus.
For experiment [7], the system named is Mycobacterium tuberculosis. Nature of the experiment: Antibacterial activity against Mycobacterium tuberculosis.
A further experiment relates to Staphylococcus aureus. Nature of the experiment: Antibacterial activity against Staphylococcus aureus.
The subject of experiment [8] is Aspergillus fumigatus. Put plainly: Antifungal activity against Aspergillus fumigatus assessed as growth inhibition.
The next experiment concerns Trichophyton tonsurans. Put plainly: Antifungal activity against Trichophyton tonsurans.

As a reminder, the MIC is the least concentration at which growth counts as inhibited. Read a low MIC as greater potency.

Values after ≈ are worked out from the molar mass of the structure shown.

Take `OC(CN1CCN(c2ccc(OCc3ccc(F)cc3)cc2)CC1)(Cn1cncn1)c1ccccc1` (centres undefined): the MIC against Candida parapsilosis, against Microsporum, against Candida tropicalis, against Aspergillus fumigatus [1], with Cryptococcus neoformans and against Trichophyton rubrum was 0.0625 µg/mL (≈ 0.128 µM) throughout.

In turn, `CCCn1cc(-c2ccc(Cl)cc2)c(C(c2ccccc2)n2ccnc2)c1` (centres undefined) gave an MIC against Candida albicans of 0.016 µg/mL (≈ 0.0426 µM).

With `N#CC(=C1CCCCC1)c1nc2cc(Cl)ccc2o1`, the “growth inhibition (GI)” value in the experiment on Aspergillus niger [2] and in the experiment on Aspergillus flavus [3] was 60% in each case.

Consider `OC(CN1CCN(c2ccc(OCc3ccncc3)cc2)CC1)(Cn1cncn1)c1ccccc1` (centres undefined), for which the MIC against Candida parapsilosis, in the experiment on Microsporum, with Candida tropicalis, against Aspergillus fumigatus [1], against Cryptococcus neoformans and in the experiment on Trichophyton rubrum was 0.0625 µg/mL (≈ 0.133 µM) each time.

With `CC1=NN(c2ccccc2)C(=O)C12C(C)(C(=O)OC(C)(C)C)C2(c1ccccc1)c1ccccc1` (centres undefined), in the experiment on Candida, the MIC turned out to be 25 µg/mL (≈ 53.6 µM).

NYSTATIN came in with an inhibition zone (IZ) in the experiment on Candida of 20 mm.

With `COc1ccc(N2OC(CO)CC2c2ccc(-c3ccccc3)cc2)cc1` (centres undefined), the MIC in the experiment with Lasiodiplodia theobromae, in the experiment with Fusarium verticillioides and in the experiment on Aspergillus flavus [4] was 2.5 µg/mL (≈ 6.92 µM) each time.

With `CCCCOc1ccccc1N1CCN(CCc2nnn(C(C)C(O)(Cn3cncn3)c3ccc(F)cc3F)n2)CC1` (centres undefined), the MIC against Candida parapsilosis, in the experiment with Candida tropicalis, against Cryptococcus neoformans and in the experiment on Candida albicans was 1 µg/mL (≈ 1.72 µM) in each case.

As for `Nc1nc(=O)[nH]cc1F` [FLUCYTOSINE], the MIC against Pichia kudriavzevii, in the experiment on Aspergillus niger [5], in the experiment on Candida tropicalis, in the experiment on Aspergillus flavus [4] and with Candida albicans was 12.5 µg/mL (≈ 96.8 µM) throughout.

Consider `CCOC(=O)C1(C)C2(C(=O)N(c3ccccc3)N=C2C)C1(c1ccccc1)c1ccccc1` (centres undefined), for which the MIC against Candida was 25 µg/mL (≈ 57 µM).

Regarding `Fc1ccc(N2OC(c3ccccc3)CC2c2ccc(-c3ccccc3)cc2)cc1` (centres undefined), the MIC with Lasiodiplodia theobromae, with Fusarium verticillioides and in the experiment on Aspergillus flavus [4] was 2.5 µg/mL (≈ 6.32 µM) each time.

In turn, `CC1=NN(c2ccccc2)C(=O)C12C(C#N)C2(c1ccccc1)c1ccccc1` (centres undefined) registered an MIC in the experiment with Candida of 25 µg/mL (≈ 66.2 µM).

In turn, `CC1=NN(c2ccccc2)C(=O)C12C(C(=O)OC(C)(C)C)C2(c1ccccc1)c1ccccc1` (centres undefined) returned an MIC in the experiment with Candida of 25 µg/mL (≈ 55.2 µM).

Take `N#Cc1ccc(N(CC(O)(Cn2cncn2)c2ccc(F)cc2F)C2CC2)cc1` (centres undefined): the MIC (against Candida parapsilosis; in experiment [6]; in the experiment on Microsporum canis; in the experiment on Candida tropicalis; with Aspergillus fumigatus [1]; in the experiment on Cryptococcus neoformans) was 0.125 µg/mL (≈ 0.316 µM) in each case. For the same compound, the MIC against Candida albicans and in the experiment on Trichophyton rubrum was 0.125 µg/mL (≈ 0.316 µM) each time.

As for `COC(=O)C1(C)C2(C(=O)N(c3ccccc3)N=C2C)C1(c1ccccc1)c1ccccc1` (centres undefined), the MIC in the experiment on Candida amounted to 25 µg/mL (≈ 58.9 µM).

As to `O=C1CCCC2=C1C(c1ccc(F)cc1)N1C(=O)CSC1=N2` (centres undefined), the MIC in the experiment with Aspergillus flavus [4] and against Aspergillus ochraceus was 40 µg/mL (≈ 126 µM) each time.

Consider `NC(=S)N1N=C(c2ccc(Cl)cc2)CC1c1cccnc1` (centres undefined), for which the MIC in experiment [7] turned out to be 6.25 µg/mL (≈ 19.7 µM); against Staphylococcus aureus it was 128 µg/mL (≈ 404 µM).

For the compound `CCN(CC)C(=O)C1(C)C2(C(=O)N(c3ccccc3)N=C2C)C1(c1ccccc1)c1ccccc1` (centres undefined), the MIC against Candida worked out at 25 µg/mL (≈ 53.7 µM).

On to `CC1=NN(c2ccccc2)C(=O)C12C(C(=O)OC(C)C)C2(c1ccccc1)c1ccccc1` (centres undefined), for which the MIC in the experiment with Candida was 25 µg/mL (≈ 57 µM).

Regarding `COC(=O)Nc1nc2ccccc2[nH]1` [CARBENDAZIM], the “growth inhibition (GI)” value in the experiment with Aspergillus fumigatus [8] is on record as 92%; in the experiment on Aspergillus niger [2] it was 90%.

Compound `Cc1ncc([N+](=O)[O-])n1CC(O)CCl` (centres undefined) [ORNIDAZOLE] came in with an MIC in the experiment with Trichophyton tonsurans of 0.8 µg/mL (≈ 3.64 µM).

In the experiment with Candida, `CCOC(=O)C1C2(C(=O)N(c3ccccc3)N=C2C)C1(c1ccccc1)c1ccccc1` (centres undefined) yielded an MIC of 25 µg/mL (≈ 58.9 µM).

In the case of `CC1=NN(c2ccccc2)C(=O)C12C(C)(C#N)C2(c1ccccc1)c1ccccc1` (centres undefined), in the experiment on Candida, inhibition of growth (MIC) required 25 µg/mL (≈ 63.9 µM).

Take `N#CC(=C1CCCC1)c1nc2cc(Cl)ccc2o1`: the “growth inhibition (GI)” value in the experiment with Aspergillus niger [2] and in the experiment with Aspergillus flavus [3] was 60% in each case.

Turning to `N#CC1=C(N)OC2=C(SC3=NC4=C(C(=O)CCC4)C(c4ccc(F)cc4)N32)C1c1ccc(Cl)cc1` (centres undefined), the MIC in the experiment on Aspergillus flavus [4] and in the experiment with Aspergillus ochraceus was 40 µg/mL (≈ 79.2 µM) each time.
